According to ChEMBL document CHEMBL5634123, “Design and synthesis of 1H-benzo[d]imidazole selective HDAC6 inhibitors with potential therapy for multiple myeloma” (Eur J Med Chem, 2023):
Active and inactive are the calls of the source. The calls are words filed in the database; no cut-off is given here.

Assays:
SGC-7901 = experiment: Cytotoxicity against human SGC-7901 cells assessed as inhibition of cell viability incubated for 24 hrs by CCK8 assay; format: functional, cell-based; conditions: SGC-7901, 24 h
Histone deacetylase 2 = Histone deacetylase 2 (Homo sapiens, UniProt Q92769); experiment: Inhibition of HDAC2 (unknown origin) preincubated for 10 mins followed by substrate addition by fluorescence based assay
Histone deacetylase 8 = biological target: T1, Histone deacetylase 8 (Homo sapiens, UniProt Q9BY41); experiment: Inhibition of HDAC8 (unknown origin) preincubated for 10 mins followed by substrate addition by fluorescence based assay
T1 sequence (Q9BY41 whole entry): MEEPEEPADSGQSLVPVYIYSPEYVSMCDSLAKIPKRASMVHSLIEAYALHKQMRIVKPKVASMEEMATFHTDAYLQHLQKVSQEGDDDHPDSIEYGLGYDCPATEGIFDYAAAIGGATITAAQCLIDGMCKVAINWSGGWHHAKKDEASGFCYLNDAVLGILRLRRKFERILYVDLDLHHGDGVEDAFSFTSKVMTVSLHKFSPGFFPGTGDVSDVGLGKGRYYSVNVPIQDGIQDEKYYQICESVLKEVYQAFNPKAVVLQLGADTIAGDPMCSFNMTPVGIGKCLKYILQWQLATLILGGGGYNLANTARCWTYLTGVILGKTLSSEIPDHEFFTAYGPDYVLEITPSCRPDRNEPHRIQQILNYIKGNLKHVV

Histone deacetylase 4 = Histone deacetylase 4 (Homo sapiens, UniProt P56524); experiment: Inhibition of HDAC4 (unknown origin) preincubated for 10 mins followed by substrate addition by fluorescence based assay
Histone deacetylase 5 = Histone deacetylase 5 (Homo sapiens, UniProt Q9UQL6); experiment: Inhibition of HDAC5 (unknown origin) preincubated for 10 mins followed by substrate addition by fluorescence based assay
[1] = biological target: T2, Protein deacetylase HDAC6 (Homo sapiens) (UniProt Q9UBN7); experiment: Inhibition of HDAC6 in human RPMI-8226 cells assessed as increase in Ac-alpha-tubulin expression at 0.5 to 2.5 uM incubated for 24 hrs by Western blot analysis; format: cell-based; conditions: dose 0.5-2.5 µM
T2 sequence (whole entry): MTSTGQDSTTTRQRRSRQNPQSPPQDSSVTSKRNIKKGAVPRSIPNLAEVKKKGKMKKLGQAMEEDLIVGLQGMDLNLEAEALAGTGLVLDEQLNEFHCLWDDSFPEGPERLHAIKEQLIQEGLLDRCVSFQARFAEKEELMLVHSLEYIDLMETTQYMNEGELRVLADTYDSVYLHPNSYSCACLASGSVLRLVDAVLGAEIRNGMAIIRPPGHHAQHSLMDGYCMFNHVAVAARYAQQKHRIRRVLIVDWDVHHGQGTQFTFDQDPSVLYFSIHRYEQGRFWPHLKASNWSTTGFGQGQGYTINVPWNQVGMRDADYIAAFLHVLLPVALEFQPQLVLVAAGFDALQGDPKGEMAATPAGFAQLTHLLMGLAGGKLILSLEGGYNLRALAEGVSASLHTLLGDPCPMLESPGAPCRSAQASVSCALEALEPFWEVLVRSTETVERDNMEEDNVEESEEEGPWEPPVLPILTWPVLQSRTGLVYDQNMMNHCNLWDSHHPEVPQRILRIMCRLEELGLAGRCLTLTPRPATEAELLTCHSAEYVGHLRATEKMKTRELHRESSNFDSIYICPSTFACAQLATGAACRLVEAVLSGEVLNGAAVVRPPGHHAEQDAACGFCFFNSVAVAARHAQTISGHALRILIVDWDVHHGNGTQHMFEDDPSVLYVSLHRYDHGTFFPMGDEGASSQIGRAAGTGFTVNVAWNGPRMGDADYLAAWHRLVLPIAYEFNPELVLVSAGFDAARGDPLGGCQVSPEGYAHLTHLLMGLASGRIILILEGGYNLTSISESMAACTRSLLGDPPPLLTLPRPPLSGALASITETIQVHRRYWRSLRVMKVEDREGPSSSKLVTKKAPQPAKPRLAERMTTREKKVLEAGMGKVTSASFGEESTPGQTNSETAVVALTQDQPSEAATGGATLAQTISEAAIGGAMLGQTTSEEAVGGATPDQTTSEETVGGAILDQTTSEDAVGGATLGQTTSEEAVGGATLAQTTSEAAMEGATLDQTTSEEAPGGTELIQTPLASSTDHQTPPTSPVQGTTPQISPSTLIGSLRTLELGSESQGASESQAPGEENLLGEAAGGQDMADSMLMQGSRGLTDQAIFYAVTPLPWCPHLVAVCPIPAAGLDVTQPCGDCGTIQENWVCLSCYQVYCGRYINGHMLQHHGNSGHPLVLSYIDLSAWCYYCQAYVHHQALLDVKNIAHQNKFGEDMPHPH

RPMI-8226 [2] = experiment: Induction of cell cycle arrest at S phase in human RPMI-8226 cells at 0.1 uM incubated for 24 hrs by PI staining based flow cytometry (reference value: 58.5 %); format: functional
RPMI-8226 [3] = experiment: Induction of cell cycle arrest at S phase in human RPMI-8226 cells at 0.5 uM incubated for 24 hrs by PI staining based flow cytometry (reference value: 58.5 %); format: functional
RPMI-8226 [4] = experiment: Induction of apoptosis in human RPMI-8226 cells assessed as viable cells at 0.1 uM incubated for 24 hrs by Annexin V-FITC/PI staining based flow cytometry (reference value: 90.98 %); format: functional; conditions: read-out: Activity
RPMI-8226 [5] = experiment: Induction of apoptosis in human RPMI-8226 cells assessed as early apoptotic cells at 0.1 uM incubated for 24 hrs by Annexin V-FITC/PI staining based flow cytometry (reference value: 5.34 %); format: functional
RPMI-8226 [6] = experiment: Induction of apoptosis in human RPMI-8226 cells assessed as necrotic cells at 0.1 uM incubated for 24 hrs by Annexin V-FITC/PI staining based flow cytometry (reference value: 0.90 %); format: functional
RPMI-8226 [7] = experiment: Induction of apoptosis in human RPMI-8226 cells assessed as late apoptotic cells at 2.5 uM incubated for 24 hrs by Annexin V-FITC/PI staining based flow cytometry (reference value: 2.78 %); format: functional
RPMI-8226 [8] = experiment: Induction of apoptosis in human RPMI-8226 cells assessed as increase in caspase-3 expression at 0.1 to 2.5 uM incubated for 24 hrs by Western blot analysis; format: functional, cell-based; conditions: dose 0.1-2.5 µM
[9] = AUC (0 to t) in mouse at 1 mg/kg, iv; format: ADME, organism-based; conditions: in vivo
[10] = Cmax in mouse at 10 mg/kg, po; format: ADME, organism-based; conditions: in vivo
[11] = Toxicity in Balb/c nude mouse xenografted with human RPMI-8226 cells assessed as adverse effect on lung at 10 to 40 mg/kg, po qd for 21 days administered consecutively by H and E staining based analysis; format: organism-based; conditions: in vivo, 504 h, dose 10-40 mg/kg, time 21 day
[12] = Toxicity in Balb/c nude mouse xenografted with human RPMI-8226 cells assessed as adverse effect on serum AST level at 10 to 40 mg/kg, po qd for 21 days administered consecutively; format: organism-based; conditions: in vivo, 504 h, dose 10-40 mg/kg, time 21 day
[13] = Toxicity in Balb/c nude mouse xenografted with human RPMI-8226 cells assessed as adverse effect on serum total protein level at 10 to 40 mg/kg, po qd for 21 days administered consecutively; format: organism-based; conditions: in vivo, 504 h, dose 10-40 mg/kg, time 21 day

Chain of Histone deacetylase 5 (Q9UQL6 whole entry): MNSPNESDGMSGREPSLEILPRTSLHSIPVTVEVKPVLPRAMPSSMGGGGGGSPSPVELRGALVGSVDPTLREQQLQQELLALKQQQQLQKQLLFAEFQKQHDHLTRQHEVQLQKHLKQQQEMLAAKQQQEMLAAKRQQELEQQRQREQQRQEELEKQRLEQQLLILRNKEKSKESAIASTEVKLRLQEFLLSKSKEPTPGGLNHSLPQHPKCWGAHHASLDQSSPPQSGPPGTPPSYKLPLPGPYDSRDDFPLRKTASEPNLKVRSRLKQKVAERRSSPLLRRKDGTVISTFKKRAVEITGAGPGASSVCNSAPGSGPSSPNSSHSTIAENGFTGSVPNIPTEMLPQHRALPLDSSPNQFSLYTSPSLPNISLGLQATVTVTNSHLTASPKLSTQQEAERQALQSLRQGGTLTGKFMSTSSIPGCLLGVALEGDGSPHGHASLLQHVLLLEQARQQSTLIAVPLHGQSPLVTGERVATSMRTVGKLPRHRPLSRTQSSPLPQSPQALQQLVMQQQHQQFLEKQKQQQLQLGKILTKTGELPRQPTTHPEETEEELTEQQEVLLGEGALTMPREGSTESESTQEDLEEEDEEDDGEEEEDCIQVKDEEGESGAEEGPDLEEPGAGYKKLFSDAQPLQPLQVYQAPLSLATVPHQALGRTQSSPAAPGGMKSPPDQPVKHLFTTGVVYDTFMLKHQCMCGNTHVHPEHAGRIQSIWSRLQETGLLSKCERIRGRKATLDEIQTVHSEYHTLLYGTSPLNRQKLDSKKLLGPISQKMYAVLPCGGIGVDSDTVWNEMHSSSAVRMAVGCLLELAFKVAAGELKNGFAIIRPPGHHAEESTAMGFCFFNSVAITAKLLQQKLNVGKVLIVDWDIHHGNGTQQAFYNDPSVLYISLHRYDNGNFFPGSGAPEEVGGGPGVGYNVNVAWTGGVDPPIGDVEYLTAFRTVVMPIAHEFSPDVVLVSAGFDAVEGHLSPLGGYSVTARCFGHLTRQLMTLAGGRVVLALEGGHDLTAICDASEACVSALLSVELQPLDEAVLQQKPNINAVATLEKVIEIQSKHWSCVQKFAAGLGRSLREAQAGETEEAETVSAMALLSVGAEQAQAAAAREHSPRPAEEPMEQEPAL
Chain of Histone deacetylase 2 (Q92769 whole entry): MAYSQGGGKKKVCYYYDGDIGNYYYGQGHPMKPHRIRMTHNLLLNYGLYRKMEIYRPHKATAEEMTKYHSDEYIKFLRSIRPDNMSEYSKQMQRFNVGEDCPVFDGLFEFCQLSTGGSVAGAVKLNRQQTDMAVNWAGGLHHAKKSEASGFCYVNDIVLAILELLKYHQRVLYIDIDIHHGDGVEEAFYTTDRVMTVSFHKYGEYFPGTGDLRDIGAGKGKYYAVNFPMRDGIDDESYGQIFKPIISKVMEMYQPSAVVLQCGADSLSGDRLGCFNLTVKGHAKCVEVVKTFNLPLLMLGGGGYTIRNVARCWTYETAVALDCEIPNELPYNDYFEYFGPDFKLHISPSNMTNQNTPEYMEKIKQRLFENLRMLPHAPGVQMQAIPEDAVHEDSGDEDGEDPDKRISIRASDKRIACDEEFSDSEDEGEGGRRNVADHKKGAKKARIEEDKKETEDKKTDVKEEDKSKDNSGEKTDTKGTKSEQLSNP
Chain of Histone deacetylase 4 (P56524 whole entry): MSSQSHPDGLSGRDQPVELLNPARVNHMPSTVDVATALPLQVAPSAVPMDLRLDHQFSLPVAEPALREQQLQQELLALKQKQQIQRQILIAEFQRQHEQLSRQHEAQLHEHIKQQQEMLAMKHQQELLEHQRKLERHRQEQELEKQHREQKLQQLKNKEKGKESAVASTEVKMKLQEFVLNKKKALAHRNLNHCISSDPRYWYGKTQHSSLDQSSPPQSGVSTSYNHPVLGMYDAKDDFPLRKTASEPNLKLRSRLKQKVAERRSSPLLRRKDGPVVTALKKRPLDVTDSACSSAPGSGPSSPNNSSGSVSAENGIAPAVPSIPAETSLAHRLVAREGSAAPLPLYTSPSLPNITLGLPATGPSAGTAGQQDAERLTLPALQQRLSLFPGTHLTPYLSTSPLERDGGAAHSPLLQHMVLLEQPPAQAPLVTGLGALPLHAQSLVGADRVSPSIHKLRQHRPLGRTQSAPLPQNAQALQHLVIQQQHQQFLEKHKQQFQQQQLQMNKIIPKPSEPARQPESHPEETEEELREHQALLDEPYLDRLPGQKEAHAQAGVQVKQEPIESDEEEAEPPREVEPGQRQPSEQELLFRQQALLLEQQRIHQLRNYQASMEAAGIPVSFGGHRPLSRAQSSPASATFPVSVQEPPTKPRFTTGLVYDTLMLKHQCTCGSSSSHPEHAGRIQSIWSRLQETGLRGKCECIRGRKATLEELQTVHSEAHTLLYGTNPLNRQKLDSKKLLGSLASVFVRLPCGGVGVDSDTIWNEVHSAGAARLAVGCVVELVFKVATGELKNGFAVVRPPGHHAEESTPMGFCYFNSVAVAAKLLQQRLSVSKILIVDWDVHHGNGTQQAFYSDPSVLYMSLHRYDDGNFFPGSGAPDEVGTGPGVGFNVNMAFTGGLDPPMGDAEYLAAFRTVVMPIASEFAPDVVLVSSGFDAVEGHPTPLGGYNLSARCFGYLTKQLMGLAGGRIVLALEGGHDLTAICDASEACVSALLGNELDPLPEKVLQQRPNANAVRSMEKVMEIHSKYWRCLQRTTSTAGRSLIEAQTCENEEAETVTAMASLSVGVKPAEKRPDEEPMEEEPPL

Cn1c([C@@H](Cc2ccccc2)NCc2ccccc2)nc2cc(C(=O)NO)ccc21
IC50 (SGC-7901): > 50000 nM | IC50 (Histone deacetylase 2): 1790 nM | IC50 (Histone deacetylase 8): 867 nM | IC50 (Histone deacetylase 4): 1930 nM | IC50 (Histone deacetylase 5): 2120 nM | inhibition [1]: Active | Activity (RPMI-8226 [2]): 54% | Activity (RPMI-8226 [3]): 43.3% | viability at 0.1 µM (RPMI-8226 [4]): 82.5% | Activity (RPMI-8226 [5]): 12.79% | Activity (RPMI-8226 [6]): 0.45% | Activity (RPMI-8226 [7]): 4.26% | Activity (RPMI-8226 [8]): Active | AUC(0-t) [9]: 202 ng·h/mL | Cmax [10]: 177 ng/mL | Activity [11]: Non-Toxic | Activity [12]: Non-Toxic | Activity [13]: Non-Toxic
